{"source": "patent US6218112A", "about": "“Optimization of gene delivery and gene delivery system” (Cobra Therapeutics Limited, priority 1997, dated 2001)", "key": {"Jurkat cell line": {"tested_on": "Jurkat cell line", "assay": "In vitro transfection with pRSVLuc (luciferase) condensed on peptides", "format": "cell-based", "conditions": "peptide 2 μg/μg plasmid DNA, luciferase after 24 h, FIG. 7", "procedure": "After incubation the cells are lysed and are assayed for gene expression. In the case of the luciferase reporter gene, luciferin and ATP are added to lysed cells and the light emitted is measured with a luminometer (see deWet et al., supra).\nCell lines such as Jurkat and K562 grow in suspension and can be transfected and the level of transgene expression (luciferase activity) determined b) the following method. Cells are harvested on the day of assay by centrifugation at 1200 rpm for 5 mins at room temperature. The cell pellet is resuspended in phosphate buffered saline and re-centrifuged. This operation is performed twice. […] The cells are then aliquoted into tubes and 0.75 ml of RPMI medium added, followed by 0.04-0.08 ml of 100 mM Chloroquine and finally 0.25 ml of DNA-complex solution. The transfection is then allowed to proceed by incubating the cells at 37° C. for 4 h. After this time the cells are harvested by centrifugation at 2000 rpm. The cells are then suspended in 1 ml of RPMI medium and re-centrifuged. Finally the cells are suspended in 0.5 ml RPMI medium containing 10% foetal bovine serum. Each 0.5 ml of transfected cell suspension is transferred to a well of a 12 well plastic culture plate containing 1.5 ml of RPMI 10% FBS. The original transfection tube is rinsed with a further 1 ml of medium and the wash transferred to the culture dish making a final volume of 3 ml. The culture plate is then incubated at 37° C. for 24-90 h in an atmosphere of 5% CO2. The contents of each well in the culture dish are transferred to centrifuge tubes and the cells collected by centrifugation at 13000 rpm. The pellet is resuspended in 0.12 ml of Lysis Buffer (100 mM sodium phosphate, pH 7.8; 8 mM magnesium chloride, 1 mM EDTA; 1% Triton X-100 and 15% glycerol) and agitated with a pipette. The lysate is centrifuged at 13000 rpm for 1 min and the supernatant collected. 80 μl of the supernatant are transferred to a luminometer tube. The luciferase activity is then assayed using a Berthold Lumat L9501 luminometer. The assay buffer used is Lysis Buffer containing 10 mM Luciferin and 100 mM ATP. Light produced by the luciferase is integrated over 4s and is described as relative light units (RLU). The data are converted to RLU/ml of lysate, RLU/cell or RLU/mg protein (protein concentration of the lysate having been determined in this case by the BioRAD Lowry assay.\nIn order to compare the relative efficiency of transfection of complexes composed of different NBC condensation peptides or poly-L-lysine, pRSVLuc DNA at a concentration of 100 μg/ml was condensed using peptide at a ratio of 2 μg/μg plasmid DNA as described herein with the following deviation: prior to addition to the cells (Jurkat cell line) the complexes were diluted to 20 μg/ml with 10% PEG 10 000; 37 mM sodium chloride; 25 mM sodium phosphate, pH 7.4. The cells were assayed for luciferase after 24 h."}, "[1]": {"tested_on": "KLN-205 squamous epithelial syngenic tumour cells", "assay": "In vivo transfection of KLN-205 tumours in DBA2 mice by local injection of peptide/plasmid complexes (nitroreductase immunostaining)", "parameters": "species or system mouse", "conditions": "for ranking by numbers of transfected tumor cells (most to least efficient): 0.5 μg peptide/μg DNA, intratumoural injection", "procedure": "A representative in via cell transfection system is transfection of tumor cells using a murine carcinoma model.\nThe murine carcinoma model DBA2 containing the squamous epithelial syngenic tumour cell line KLN-205 was prepared as described in the Examples. A transfecting complex was prepared using a solution of plasmid DNA encoding a reporter gene or, for example, nitroreductase and a selected NBC peptide 0.5 μg peptide/μg DNA, as described herein. Where desired, a conjugate peptide was added to the transfecting complex, at a concentration of 0.1-0.3 μg […] peptide/μg DNA.\nTransfection efficiency may be determined in a number of ways, including assessing the effect of the reporter gene on the target tissue, or by quantitating the gene product. Below, tissues samples were obtained and nitroreductase gene expression was ascertained via staining of tissue sections.\nThe ability to transfect tumor cells in vivo in mice was tested using plasmid nucleic acid carrying the nitroreductase reporter gene condensed on each of the following peptides: NBC15, NBC8, NBC9, NBC11, NBC7.\nDBA2--male mice, aged 5-10 weeks were injected subcutaneously in each flank with a squamous epithelial syngenic tumour cell line KLN-205. The cell line was grown up in 175 ml T-flasks in standard EMEM medium containing 10% foetal calf serum. When the cells reached a density of 4×10^6 they were suspended by a standard trypsinization technique, washed in PBS and diluted to a final concentration of […].\nThe anaesthetic was Enflurane (Alynane; Anaquest, Ltd., Windlesham, Surrey UK): Ketamine (10% Ketaset, Willows Francis Veterinary, Cramley, West Sussex, UK); Rompun (2%, Bayer UK, Ltd., Suffolk, UK). For 10 ml anaesthetic mixture: 8.5 ml PBS; 1 ml Ketamine; 0.5 ml Rompun. Each animal was injected intra-peritoneally with 200 μl/animal using 1 ml syringe with 25 gauge needle. Once anaesthetized, the tumour is manipulated between the fingers lifting it slightly away from the animal's body and at the same time apply minimum pressure to the tumour. Using a 0.5 ml insulin needle the formulated delivery vehicle (a plasmid containing the E. coli nitroreductase gene condensed on a peptide at a ratio of 0.5 μg peptide/μg DNA) to be injected is taken up and the tumour is injected horizontally trying to avoid any visible blood vessels and necrotic or abnormal tissue. Daily monitoring is continued until the experiment is terminated.\n7μ sections of frozen tumour tissue are prepared using standard methods and a Cryostat and air dried. Sections are fixed with freshly prepared 4% PFA/PBS for 30 mins at room temperature and then washed twice with 0.01% Tween-20/PBS 5 mins each wash. Sections are then immersed in 0.25% hydrogen peroxide/PBS, at room temperature (20C.) for 30 mins, and then washed three times in 0.01% Tween 20/PBS for 5 mins each wash. Sections are then permeabilised by treatment with ice cold 0.1 % TRITON X-100 for 5 mins, followed by a further two washes in 0.01% Tween-20/PBS 5mins each wash. The sections are then blocked with 5% NGS/PBS 60mins at room temperature in a wetbox. After decanting the blocking solution, 0.5 ml diluted antiserum/slide (1:400 in 2.5% NGS) is added and the sections incubated for 60 mins at room temperature. Slides are then washed three times in 0.01% Tween-20/PBS 5 mins each wash. Secondary antibody (0.5 ml) from ABC Elite Vector stain kit is added as follows and incubated 30 mins at room temperature in a wetbox.\nThe tumour is a murine syngenic squamous carcinoma produced by subcutaneous injection of KLN205 cells. When the tumours were approximately 4 mm in diameter they were injected with 20 μl of plasmid DNA formulated with the NBC15 peptide. After 48 h the tumours were excised and sectioned by standard histological techniques and immunostained for expression of the transgene (E. coli nitroreductase). […] In this case the tumours were injected with the same plasmid formulated in 0.5 μg NBC9 peptide/μg DNA."}}, "note": "* marks the point of attachment. Acm = CC(=O)NC*"}
{"substance": "NH2-TKKAWKKAEKKAAKKCGVSAKKAAKKAWKKA-CONH2 (H-TKKAWKKAEKKAAKKCGVSAKKAAKKAWKKA-NH2) [NBC11]", "values": [{"measurement": "rank in order of relative transfection efficiency (most to least efficient)", "setting": "Jurkat cell line", "result": "NBC11>NBC13>NBC8>>NBC15>>>polylysine"}, {"measurement": "ranking by numbers of transfected tumor cells (most to least efficient)", "setting": "[1]", "result": "NBC15>NBC8, NBC9, NBC11>NBC7>>>poly-lysine"}]}
{"substance": "NH2-KKSPKKAKKPAAKKSPKKAKKPAYC(Acm)-COOH (H-KKSPKKAKKPAAKKSPKKAKKPAYC(Acm)-OH; SMILES CC(=O)NCSC[C@H](NC(=O)[C@H](Cc1ccc(O)cc1)NC(=O)[C@H](C)NC(=O)[C@@H]1CCCN1C(=O)[C@H](CCCCN)NC(=O)[C@H](CCCCN)NC(=O)[C@H](C)NC(=O)[C@H](CCCCN)NC(=O)[C@H](CCCCN)NC(=O)[C@@H]1CCCN1C(=O)[C@H](CO)NC(=O)[C@H](CCCCN)NC(=O)[C@H](CCCCN)NC(=O)[C@H](C)NC(=O)[C@H](C)NC(=O)[C@@H]1CCCN1C(=O)[C@H](CCCCN)NC(=O)[C@H](CCCCN)NC(=O)[C@H](C)NC(=O)[C@H](CCCCN)NC(=O)[C@H](CCCCN)NC(=O)[C@@H]1CCCN1C(=O)[C@H](CO)NC(=O)[C@H](CCCCN)NC(=O)[C@@H](N)CCCCN)C(=O)O) [NBC8]", "values": [{"measurement": "rank in order of relative transfection efficiency (most to least efficient)", "setting": "Jurkat cell line", "result": "NBC11>NBC13>NBC8>>NBC15>>>polylysine"}, {"measurement": "ranking by numbers of transfected tumor cells (most to least efficient)", "setting": "[1]", "result": "NBC15>NBC8, NBC9, NBC11>NBC7>>>poly-lysine"}, {"measurement": "transfection efficiency on direct injection within a localized area", "setting": "[1]; in vivo, direct injection, e.g. a tumour", "result": "optimal transfection efficiency"}]}
